Experimental data as given in ChEMBL document CHEMBL1130224, “5-(N-oxyaza)-7-substituted-1,4-dihydroquinoxaline-2,3-diones: novel, systemically active and broad spectrum antagonists for NMDA/glycine, AMPA, and kainate receptors” (J Med Chem, 1997).

How the values were obtained:
[1] = biological target: Glutamate receptor ionotropic, AMPA (Rattus norvegicus) (UniProt P19491+P19492+P19493+P19490); assay: Inhibition of Ionotropic glutamate receptor AMPA was measured in oocytes expressing rat cerebral cortex poly (A)+ RNA; format: functional, cell-based; details: Oocyte
[2] = biological target: Glutamate receptor ionotropic, NMDA 1 (Rattus norvegicus) (UniProt P35439); assay: Inhibition of N-methyl-D-aspartate glutamate receptor 1 was measured in oocytes expressing the cloned rat NMDA receptor subunit combination NR1A/2C; format: functional, cell-based; details: Oocyte
[3] = Partition coefficient determined using octanol versus pH 7.4 buffer; format: physicochemical; details: octanol/pH 7.4 buffer
[4] = biological target: Glutamate receptor ionotropic, kainate; assay: Displacement of [3H]kainate from rat brain cortical membrane Ionotropic glutamate receptor kainate
Mus musculus [5] = species: Mus musculus; assay: Anticonvulsant activity tested in mouse; format: functional
Glutamate NMDA receptor = assay: Displacement of [3H]DCKA at N-methyl-D-aspartate glutamate receptor 1; format: protein-complex assay, Rattus norvegicus
[6] = biological target: T1, Glutamate receptor ionotropic, AMPA (Rattus norvegicus, UniProt P19490+P19491+P19492+P19493)
Description: Binding affinity in rat brain cortical membranes by the displacement of [3H]AMPA at Ionotropic glutamate receptor AMPA

[7] = biological target: Glutamate receptor ionotropic, NMDA 1 (Rattus norvegicus) (UniProt P35439); assay: Inhibition of NMDA/glycine receptors was measured in oocytes expressing the cloned rat NMDA receptor subunit combination NR1A/2C; format: functional, cell-based; details: Oocyte
Rattus norvegicus = assay: Reduction in cortical infarct volume when 20 mg/kg administarted Iv bolus followed by 14 mg/kg /h IV infusion for 22 hr in rat peramanent middle cerebral artery (MCA); format: functional
[8] = The steady state selectivity index for inhibition of NMDA/glycine receptors was estimated by dividing Kb (AMPA) by Kb (NMDA/glycine)
[9] = biological target: T2, Glutamate receptor ionotropic, NMDA 1 (Rattus norvegicus, UniProt P35439); assay: Binding affinity in rat brain cortical membranes by the displacement of [3H]- DCKA at N-methyl-D-aspartate glutamate receptor 1; format: cell membranes
Mus musculus [10] = species: Mus musculus; assay: Mouse maximum electroshock induced test seizure test in mice; format: functional
Mus musculus [11] = assay: Antinociceptive activity of tail flick test in mice, when administarted intrathecally; format: functional
[12] = biological target: T1, Glutamate receptor ionotropic, AMPA; assay: Inhibition of binding of [3H]AMPA to Ionotropic glutamate receptor AMPA in rat brain membrane; format: cell membranes
[13] = biological target: T2, Glutamate receptor ionotropic, NMDA 1; assay: Inhibition of binding of [3H]DCKA to N-methyl-D-aspartate glutamate receptor 1 in rat brain membrane; format: cell membranes
Mus musculus [14] = assay: Antinociceptive activity in mouse tail flick test, when administered intrathecally; format: functional

logD [3]	IC50 [4] [µM]	IC50 (Glutamate NMDA receptor) [µM]	IC50 [6] [µM]	Compound	ED50 (Mus musculus [5]) [mg/kg]	also measured
-2.66	5.3	0.82	9.9	[O-][n+]1cc(Cl)cc2nc(O)c(O)nc21	0.82	Kb [1]: 3.9 µM; Kb [7]: 0.63 µM; Reduction (Rattus norvegicus): 67%; Selectivity index [8]: 6.2
-2.35	7.5		5.9	O=c1[nH]c2cc(C(F)(F)F)c[n+]([O-])c2[nH]c1=O	6.3	IC50 [9]: 1.05 µM
	15	3.8	7.7	O=[N+]([O-])c1ccc2nc(O)c(O)nc2c1		
	16	1.9	18	Oc1nc2cc(C(F)(F)F)cnc2nc1O		
0.21		0.0059	1.5	O=c1[nH]c2cc(Cl)c(Cl)c([N+](=O)[O-])c2[nH]c1=O [LICOSTINEL]	4	
-2.91	11.9		14	Cc1cc2[nH]c(=O)c(=O)[nH]c2[n+]([O-])c1	0.97	IC50 [9]: 5.9 µM

The next lines start with the compound.

Compound	logD [3]	IC50 [4] [µM]	IC50 (Glutamate NMDA receptor) [µM]	IC50 [6] [µM]	ED50 (Mus musculus [5]) [mg/kg]	also measured
O=C1Nc2cc(Cl)ccc2CC1[N+](=O)[O-] (configuration not stated)						Kb [1]: 9.2 µM; Kb [2]: 6.7 µM
O=[N+]([O-])c1cnc2nc(O)c(O)nc2c1	-0.97	4.4	1.1	3.3	4.5	Kb [1]: 1.4 µM; Kb [2]: 0.43 µM
Cc1cnc2nc(O)c(O)nc2c1		49	41	67		
Oc1nc2cc(Cl)cnc2nc1O		22	2.2	38		
NS(=O)(=O)c1cccc2c1c([N+](=O)[O-])cc1nc(O)c(O)nc12 [NBQX]						ED50 (Mus musculus [10]): 13.1 mg/kg; ED50 (Mus musculus [11]): 1.6 ug mouse-1
[O-][n+]1cc(Br)cc2nc(O)c(O)nc21	-2.48	3.4		6.7	0.87	IC50 [9]: 1 µM
O=[N+]([O-])c1ccc2cc(NS(=O)(=O)C(F)(F)F)c(O)nc2c1						IC50 [12]: 0.63 µM; IC50 [13]: 0.62 µM
O=c1[nH]c2cc([N+](=O)[O-])c[n+]([O-])c2[nH]c1=O	-3.31	2.4		1.3	4.6	ED50 (Mus musculus [14]): 2.6 ug mouse-1; IC50 [9]: 0.69 µM
Oc1nc2cc(Br)cnc2nc1O		16	4.1	32		
O=c1[nH]c2ccc(Cl)cc2[nH]c1=O		52		52		
CN1CCc2c([N+](=O)[O-])cc3[nH]c(=O)c(=O)[nH]c3c2C1		0.36	0.37			ED50 (Mus musculus [10]): 0.44 mg/kg
